#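 These data come from cells grown in 96-well plates and exposed to compound for 48 hours at five concentrations. Here, GI50 denotes the concentration required for 50% inhibition of growth. TGI is the concentration that stops growth completely.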
# Legend:
# Assay in all cases: NCI anticancer screen, dose series, 48 h
# A549 NSCLC = test system: A549 NSCLC
# ACHN renal = test system: ACHN renal
# BT-549 breast = test system: BT-549 breast
# CAKI-1 renal = test system: CAKI-1 renal
# CCRF-CEM leukemia = test system: CCRF-CEM leukemia
# COLO 205 colon = test system: COLO 205 colon
# DU-145 prostate = test system: DU-145 prostate
# EKVX NSCLC = test system: EKVX NSCLC
# HCC-2998 colon = test system: HCC-2998 colon
# HCT-116 colon = test system: HCT-116 colon
# HCT-15 colon = test system: HCT-15 colon
# HOP-62 NSCLC = test system: HOP-62 NSCLC
# HOP-92 NSCLC = test system: HOP-92 NSCLC
# HS 578T breast = test system: HS 578T breast
# HT29 colon = test system: HT29 colon
# K-562 leukemia = test system: K-562 leukemia
# KM12 colon = test system: KM12 colon
# LOX IMVI melanoma = test system: LOX IMVI melanoma
# MALME-3M melanoma = test system: MALME-3M melanoma
# MCF7 breast = test system: MCF7 breast
# MDA-MB-231 breast = test system: MDA-MB-231 breast
# MDA-MB-435 = test system: MDA-MB-435
# NCI-H226 lung = test system: NCI-H226 lung
# NCI-H23 lung = test system: NCI-H23 lung
# NCI-H460 lung = test system: NCI-H460 lung
# NCI/ADR-RES ovarian = test system: NCI/ADR-RES ovarian
# OVCAR-3 ovarian = test system: OVCAR-3 ovarian
# OVCAR-4 ovarian = test system: OVCAR-4 ovarian
# OVCAR-5 ovarian = test system: OVCAR-5 ovarian
# OVCAR-8 ovarian = test system: OVCAR-8 ovarian
# PC-3 prostate = test system: PC-3 prostate
# RPMI-8226 leukemia = test system: RPMI-8226 leukemia
# SF-268 CNS = test system: SF-268 CNS
# SF-295 CNS = test system: SF-295 CNS
# SF-539 CNS = test system: SF-539 CNS
# SK-MEL-28 melanoma = test system: SK-MEL-28 melanoma
# SK-MEL-5 melanoma = test system: SK-MEL-5 melanoma
# SK-OV-3 ovarian = test system: SK-OV-3 ovarian
# SN12C renal = test system: SN12C renal
# SNB-19 CNS = test system: SNB-19 CNS
# SNB-75 CNS = test system: SNB-75 CNS
# SW-620 colon = test system: SW-620 colon
# T-47D breast = test system: T-47D breast
# TK-10 renal = test system: TK-10 renal
# U251 CNS = test system: U251 CNS
# UACC-257 melanoma = test system: UACC-257 melanoma
# UACC-62 melanoma = test system: UACC-62 melanoma
structure (smiles),measurement,setting,value
COc1cc(S(=O)(=O)Nc2ccc(C(=O)/C=C/c3ccc(O)cc3)cc2)ccc1F,GI50,A549 NSCLC,> 100 µM
same,TGI,A549 NSCLC,> 100 µM
same,GI50,ACHN renal,> 100 µM
same,TGI,ACHN renal,> 100 µM
same,GI50,BT-549 breast,> 100 µM
same,TGI,BT-549 breast,> 100 µM
same,GI50,CAKI-1 renal,> 100 µM
same,TGI,CAKI-1 renal,> 100 µM
same,GI50,CCRF-CEM leukemia,> 100 µM
same,TGI,CCRF-CEM leukemia,> 100 µM
same,GI50,COLO 205 colon,> 100 µM
same,TGI,COLO 205 colon,> 100 µM
same,GI50,DU-145 prostate,> 100 µM
same,TGI,DU-145 prostate,> 100 µM
same,GI50,EKVX NSCLC,80.5 µM
same,TGI,EKVX NSCLC,> 100 µM
same,GI50,HCC-2998 colon,> 100 µM
same,TGI,HCC-2998 colon,> 100 µM
same,GI50,HCT-116 colon,> 100 µM
same,TGI,HCT-116 colon,> 100 µM
same,GI50,HCT-15 colon,> 100 µM
same,TGI,HCT-15 colon,> 100 µM
same,GI50,HOP-62 NSCLC,> 100 µM
same,TGI,HOP-62 NSCLC,> 100 µM
same,GI50,HOP-92 NSCLC,1.55 µM
same,TGI,HOP-92 NSCLC,27.5 µM
same,GI50,HS 578T breast,> 100 µM
same,TGI,HS 578T breast,> 100 µM
same,GI50,HT29 colon,> 100 µM
same,TGI,HT29 colon,> 100 µM
same,GI50,K-562 leukemia,> 100 µM
same,TGI,K-562 leukemia,> 100 µM
same,GI50,KM12 colon,> 100 µM
same,TGI,KM12 colon,> 100 µM
same,GI50,LOX IMVI melanoma,> 100 µM
same,TGI,LOX IMVI melanoma,> 100 µM
same,GI50,MALME-3M melanoma,35.1 µM
same,TGI,MALME-3M melanoma,> 100 µM
same,GI50,MCF7 breast,> 100 µM
same,TGI,MCF7 breast,> 100 µM
same,GI50,MDA-MB-231 breast,0.0267 µM
same,TGI,MDA-MB-231 breast,9.12 µM
same,GI50,MDA-MB-435,> 100 µM
same,TGI,MDA-MB-435,> 100 µM
same,GI50,NCI-H226 lung,22.4 µM
same,TGI,NCI-H226 lung,76.2 µM
same,GI50,NCI-H23 lung,> 100 µM
same,TGI,NCI-H23 lung,> 100 µM
same,GI50,NCI-H460 lung,> 100 µM
same,TGI,NCI-H460 lung,> 100 µM
same,GI50,NCI/ADR-RES ovarian,> 100 µM
same,TGI,NCI/ADR-RES ovarian,> 100 µM
same,GI50,OVCAR-3 ovarian,> 100 µM
same,TGI,OVCAR-3 ovarian,> 100 µM
same,GI50,OVCAR-4 ovarian,> 100 µM
same,TGI,OVCAR-4 ovarian,> 100 µM
same,GI50,OVCAR-5 ovarian,> 100 µM
same,TGI,OVCAR-5 ovarian,> 100 µM
same,GI50,OVCAR-8 ovarian,> 100 µM
same,TGI,OVCAR-8 ovarian,> 100 µM
same,GI50,PC-3 prostate,> 100 µM
same,TGI,PC-3 prostate,> 100 µM
same,GI50,RPMI-8226 leukemia,58.5 µM
same,TGI,RPMI-8226 leukemia,> 100 µM
same,GI50,SF-268 CNS,> 100 µM
same,TGI,SF-268 CNS,> 100 µM
same,GI50,SF-295 CNS,> 100 µM
same,TGI,SF-295 CNS,> 100 µM
same,GI50,SF-539 CNS,> 100 µM
same,TGI,SF-539 CNS,> 100 µM
same,GI50,SK-MEL-28 melanoma,> 100 µM
same,TGI,SK-MEL-28 melanoma,> 100 µM
same,GI50,SK-MEL-5 melanoma,> 100 µM
same,TGI,SK-MEL-5 melanoma,> 100 µM
same,GI50,SK-OV-3 ovarian,> 100 µM
same,TGI,SK-OV-3 ovarian,> 100 µM
same,GI50,SN12C renal,2.61 µM
same,TGI,SN12C renal,89.7 µM
same,GI50,SNB-19 CNS,> 100 µM
same,TGI,SNB-19 CNS,> 100 µM
same,GI50,SNB-75 CNS,87.5 µM
same,TGI,SNB-75 CNS,> 100 µM
same,GI50,SW-620 colon,> 100 µM
same,TGI,SW-620 colon,> 100 µM
same,GI50,T-47D breast,> 100 µM
same,TGI,T-47D breast,> 100 µM
same,GI50,TK-10 renal,47 µM
same,TGI,TK-10 renal,> 100 µM
same,GI50,U251 CNS,> 100 µM
same,TGI,U251 CNS,> 100 µM
same,GI50,UACC-257 melanoma,> 100 µM
same,TGI,UACC-257 melanoma,> 100 µM
same,GI50,UACC-62 melanoma,57.6 µM
same,TGI,UACC-62 melanoma,> 100 µM

# — PubChem BioAssay (NCI)
